Assay results reported in ChEMBL document CHEMBL1135338, “Protease inhibitors: synthesis of matrix metalloproteinase and bacterial collagenase inhibitors incorporating 5-amino-2-mercapto-1,3,4-thiadiazole zinc binding functions” (Bioorg Med Chem Lett, 2002).
pKi: −log10 of the molar value.

Molecular target: Matrix metalloproteinase-9 (Homo sapiens, UniProt P14780)
Assay: Inhibition of human matrix metalloprotease-9

Sequence of Matrix metalloproteinase-9 (P14780 whole entry): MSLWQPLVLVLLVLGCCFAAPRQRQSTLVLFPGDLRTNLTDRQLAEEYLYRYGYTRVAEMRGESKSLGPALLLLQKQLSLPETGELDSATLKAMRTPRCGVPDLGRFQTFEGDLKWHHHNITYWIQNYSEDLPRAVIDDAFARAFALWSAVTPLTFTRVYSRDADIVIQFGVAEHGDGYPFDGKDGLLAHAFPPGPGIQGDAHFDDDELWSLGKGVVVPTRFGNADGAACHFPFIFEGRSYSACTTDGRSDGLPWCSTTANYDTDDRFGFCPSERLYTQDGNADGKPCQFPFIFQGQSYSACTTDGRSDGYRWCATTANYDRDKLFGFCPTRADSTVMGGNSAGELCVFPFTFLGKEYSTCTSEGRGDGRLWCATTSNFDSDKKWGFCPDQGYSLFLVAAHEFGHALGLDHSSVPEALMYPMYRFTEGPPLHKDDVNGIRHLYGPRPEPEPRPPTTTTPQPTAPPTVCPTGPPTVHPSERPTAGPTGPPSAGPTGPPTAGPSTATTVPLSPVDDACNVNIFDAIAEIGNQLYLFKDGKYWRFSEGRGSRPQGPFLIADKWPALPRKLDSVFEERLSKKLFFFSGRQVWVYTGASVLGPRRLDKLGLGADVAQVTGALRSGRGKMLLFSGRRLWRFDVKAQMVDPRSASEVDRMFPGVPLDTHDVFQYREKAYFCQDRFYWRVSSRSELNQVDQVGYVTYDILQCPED

C[C@H](NC(=O)[C@H](Cc1ccccc1)NS(=O)(=O)c1cccc2c(N(C)C)cccc12)C(=O)Nc1n[nH]c(=S)s1 and C[C@H](NC(=O)[C@H](Cc1ccccc1)NS(=O)(=O)c1cccc2cccnc12)C(=O)Nc1n[nH]c(=S)s1 are within 0.2 log units of each other in pKi: 4.30 for the first, 4.35 for the second.

C[C@H](NC(=O)[C@H](Cc1ccccc1)NS(=O)(=O)c1cccc([N+](=O)[O-])c1)C(=O)Nc1n[nH]c(=S)s1 and C[C@H](NC(=O)[C@H](Cc1ccccc1)NS(=O)(=O)c1ccc([N+](=O)[O-])cc1)C(=O)Nc1n[nH]c(=S)s1 are the same in pKi: 4.74 for the first, 4.74 for the second.

Compared with C[C@H](NC(=O)[C@H](Cc1ccccc1)NS(=O)(=O)c1cccs1)C(=O)Nc1n[nH]c(=S)s1, Cc1ccc(S(=O)(=O)N[C@@H](Cc2ccccc2)C(=O)N[C@@H](C)C(=O)Nc2n[nH]c(=S)s2)cc1 is 0.30 log units lower in pKi: 5.00 for the first, 4.70 for the second. The first binds more tightly here.

Compared with C[C@H](NC(=O)[C@H](Cc1ccccc1)NS(=O)(=O)CC12CCC(CC1=O)C2(C)C)C(=O)Nc1n[nH]c(=S)s1 (stereo not given in full), C[C@H](NC(=O)[C@H](Cc1ccccc1)NS(=O)(=O)Cc1ccccc1)C(=O)Nc1n[nH]c(=S)s1 is 0.40 log units higher in pKi: 4.40 for the first, 4.80 for the second.

C[C@H](NC(=O)[C@H](Cc1ccccc1)NS(=O)(=O)c1ccc(Cl)cc1)C(=O)Nc1n[nH]c(=S)s1 and C[C@H](NC(=O)[C@H](Cc1ccccc1)NS(=O)(=O)c1ccc(Br)cc1)C(=O)Nc1n[nH]c(=S)s1 are within 0.2 log units of each other in pKi: 4.82 for the first, 4.68 for the second.

In the case of C[C@H](NC(=O)[C@H](Cc1ccccc1)NS(=O)(=O)c1ccc(I)cc1)C(=O)Nc1n[nH]c(=S)s1, the pKi was 4.74.

Molecular target: Stromelysin-1 (Homo sapiens, UniProt P08254)
Sequence (P08254 whole entry): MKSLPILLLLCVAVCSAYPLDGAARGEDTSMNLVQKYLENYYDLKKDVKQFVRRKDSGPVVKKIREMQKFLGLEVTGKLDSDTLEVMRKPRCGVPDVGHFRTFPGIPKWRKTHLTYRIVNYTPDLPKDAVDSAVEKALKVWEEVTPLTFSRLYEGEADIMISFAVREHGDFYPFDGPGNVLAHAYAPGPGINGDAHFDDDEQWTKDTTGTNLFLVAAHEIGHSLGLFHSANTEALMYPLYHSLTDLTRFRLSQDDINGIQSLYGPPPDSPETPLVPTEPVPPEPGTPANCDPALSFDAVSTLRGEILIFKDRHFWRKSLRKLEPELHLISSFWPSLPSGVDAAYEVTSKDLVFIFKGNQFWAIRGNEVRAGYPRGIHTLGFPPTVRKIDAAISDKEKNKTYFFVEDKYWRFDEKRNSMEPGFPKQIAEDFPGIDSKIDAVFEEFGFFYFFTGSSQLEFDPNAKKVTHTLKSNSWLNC
Assay: Inhibition of human Matrix metalloprotease-3

With O=C(O)[C@H](Cc1c[nH]c2ccccc12)NS(=O)(=O)c1ccc(N2CCC(c3ccccc3)CC2)cc1 the pKi was 7.72.

Molecular target: T1, 72 kDa type IV collagenase (Homo sapiens, UniProt P08253)
T1 sequence (P08253 whole entry): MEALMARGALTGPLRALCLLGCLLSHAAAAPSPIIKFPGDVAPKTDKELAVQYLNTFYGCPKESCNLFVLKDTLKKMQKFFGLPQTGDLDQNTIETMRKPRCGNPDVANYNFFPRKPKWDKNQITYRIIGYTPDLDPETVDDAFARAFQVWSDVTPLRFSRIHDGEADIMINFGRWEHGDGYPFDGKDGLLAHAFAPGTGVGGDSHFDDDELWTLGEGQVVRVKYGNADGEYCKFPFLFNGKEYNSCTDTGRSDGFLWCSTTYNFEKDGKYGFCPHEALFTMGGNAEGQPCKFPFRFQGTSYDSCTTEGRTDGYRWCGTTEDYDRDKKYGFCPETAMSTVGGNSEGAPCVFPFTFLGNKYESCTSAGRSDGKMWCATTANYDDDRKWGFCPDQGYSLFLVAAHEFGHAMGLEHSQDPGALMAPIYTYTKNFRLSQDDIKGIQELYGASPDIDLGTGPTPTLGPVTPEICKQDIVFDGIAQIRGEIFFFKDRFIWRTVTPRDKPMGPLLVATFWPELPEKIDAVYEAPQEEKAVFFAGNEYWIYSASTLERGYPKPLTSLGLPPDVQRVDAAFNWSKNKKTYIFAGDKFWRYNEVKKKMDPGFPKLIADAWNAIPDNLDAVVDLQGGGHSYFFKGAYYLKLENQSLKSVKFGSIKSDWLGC
Assay: Inhibition of human Matrix metalloprotease-2

CC(C)C(NS(=O)(=O)c1ccc(-c2ccccc2)cc1)C(=O)O (stereo not given) and CC(C)C(NS(=O)(=O)c1ccc(-c2ccc(Cl)cc2)cc1)C(=O)O (stereo not given) are the same in pKi: 5.70 for the first, 5.70 for the second.

O=C(O)C(Cc1ccccc1)NS(=O)(=O)c1ccc(-c2ccc(Br)cc2)cc1 (stereo not given) and O=C(O)C(Cc1ccccc1)NS(=O)(=O)c1ccc(-c2ccc(Cl)cc2)cc1 (stereo not given) are the same in pKi: 5.70 for the first, 5.70 for the second.

Compound O=C(O)C(Cc1ccccc1)NS(=O)(=O)c1ccc(-c2ccccc2)cc1 (stereo not given) has a pKi of 5.70.

Molecular target: Neutrophil collagenase (Homo sapiens, UniProt P22894)
Sequence (P22894 whole entry): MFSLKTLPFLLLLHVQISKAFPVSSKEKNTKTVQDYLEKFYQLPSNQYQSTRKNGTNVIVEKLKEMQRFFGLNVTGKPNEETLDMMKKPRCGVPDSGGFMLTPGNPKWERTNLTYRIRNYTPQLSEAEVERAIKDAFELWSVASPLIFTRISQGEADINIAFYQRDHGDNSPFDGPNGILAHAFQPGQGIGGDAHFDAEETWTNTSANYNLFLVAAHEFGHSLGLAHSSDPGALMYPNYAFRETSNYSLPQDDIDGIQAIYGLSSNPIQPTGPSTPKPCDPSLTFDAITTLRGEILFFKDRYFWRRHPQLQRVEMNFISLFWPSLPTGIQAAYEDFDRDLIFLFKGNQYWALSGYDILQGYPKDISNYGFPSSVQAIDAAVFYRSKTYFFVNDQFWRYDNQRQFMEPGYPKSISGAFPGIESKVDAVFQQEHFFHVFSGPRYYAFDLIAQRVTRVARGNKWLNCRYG
Assay: Inhibition of human matrix metalloprotease-8

C[C@H](NC(=O)[C@H](Cc1ccccc1)NS(=O)(=O)c1cccc2c(N(C)C)cccc12)C(=O)Nc1n[nH]c(=S)s1 and C[C@H](NC(=O)[C@H](Cc1ccccc1)NS(=O)(=O)c1cccc2cccnc12)C(=O)Nc1n[nH]c(=S)s1 are within 0.2 log units of each other in pKi: 4.32 for the first, 4.41 for the second.

C[C@H](NC(=O)[C@H](Cc1ccccc1)NS(=O)(=O)c1cccc([N+](=O)[O-])c1)C(=O)Nc1n[nH]c(=S)s1 and C[C@H](NC(=O)[C@H](Cc1ccccc1)NS(=O)(=O)c1ccc([N+](=O)[O-])cc1)C(=O)Nc1n[nH]c(=S)s1 are within 0.2 log units of each other in pKi: 4.89 for the first, 5.00 for the second.

C[C@H](NC(=O)[C@H](Cc1ccccc1)NS(=O)(=O)CC12CCC(CC1=O)C2(C)C)C(=O)Nc1n[nH]c(=S)s1 (stereo not given in full) and Cc1ccc(S(=O)(=O)N[C@@H](Cc2ccccc2)C(=O)N[C@@H](C)C(=O)Nc2n[nH]c(=S)s2)cc1 are within 0.2 log units of each other in pKi: 4.47 for the first, 4.64 for the second.

Molecular target: T1, 72 kDa type IV collagenase
Assay: Inhibition of human matrix metalloprotease-2

C[C@H](NC(=O)[C@H](Cc1ccccc1)NS(=O)(=O)c1cccc2c(N(C)C)cccc12)C(=O)Nc1n[nH]c(=S)s1 and C[C@H](NC(=O)[C@H](Cc1ccccc1)NS(=O)(=O)c1cccc2cccnc12)C(=O)Nc1n[nH]c(=S)s1 are within 0.2 log units of each other in pKi: 4.40 for the first, 4.39 for the second.

C[C@H](NC(=O)[C@H](Cc1ccccc1)NS(=O)(=O)c1cccc([N+](=O)[O-])c1)C(=O)Nc1n[nH]c(=S)s1 and C[C@H](NC(=O)[C@H](Cc1ccccc1)NS(=O)(=O)c1ccc([N+](=O)[O-])cc1)C(=O)Nc1n[nH]c(=S)s1 are the same in pKi: 4.92 for the first, 4.92 for the second.

C[C@H](NC(=O)[C@H](Cc1ccccc1)NS(=O)(=O)c1cccs1)C(=O)Nc1n[nH]c(=S)s1 and Cc1ccc(S(=O)(=O)N[C@@H](Cc2ccccc2)C(=O)N[C@@H](C)C(=O)Nc2n[nH]c(=S)s2)cc1 are within 0.2 log units of each other in pKi: 4.89 for the first, 4.70 for the second.

Going from C[C@H](NC(=O)[C@H](Cc1ccccc1)NS(=O)(=O)CC12CCC(CC1=O)C2(C)C)C(=O)Nc1n[nH]c(=S)s1 (stereo not given in full) to C[C@H](NC(=O)[C@H](Cc1ccccc1)NS(=O)(=O)Cc1ccccc1)C(=O)Nc1n[nH]c(=S)s1, the pKi rises from 4.46 to 4.80 (0.34 log units).

C[C@H](NC(=O)[C@H](Cc1ccccc1)NS(=O)(=O)c1ccc(Cl)cc1)C(=O)Nc1n[nH]c(=S)s1 and C[C@H](NC(=O)[C@H](Cc1ccccc1)NS(=O)(=O)c1ccc(Br)cc1)C(=O)Nc1n[nH]c(=S)s1 are within 0.2 log units of each other in pKi: 4.80 for the first, 4.82 for the second.

C[C@H](NC(=O)[C@H](Cc1ccccc1)NS(=O)(=O)c1ccc(I)cc1)C(=O)Nc1n[nH]c(=S)s1 gave a pKi of 4.77.

Molecular target: T2, Interstitial collagenase (Homo sapiens, UniProt P03956)
T2 sequence (P03956 whole entry): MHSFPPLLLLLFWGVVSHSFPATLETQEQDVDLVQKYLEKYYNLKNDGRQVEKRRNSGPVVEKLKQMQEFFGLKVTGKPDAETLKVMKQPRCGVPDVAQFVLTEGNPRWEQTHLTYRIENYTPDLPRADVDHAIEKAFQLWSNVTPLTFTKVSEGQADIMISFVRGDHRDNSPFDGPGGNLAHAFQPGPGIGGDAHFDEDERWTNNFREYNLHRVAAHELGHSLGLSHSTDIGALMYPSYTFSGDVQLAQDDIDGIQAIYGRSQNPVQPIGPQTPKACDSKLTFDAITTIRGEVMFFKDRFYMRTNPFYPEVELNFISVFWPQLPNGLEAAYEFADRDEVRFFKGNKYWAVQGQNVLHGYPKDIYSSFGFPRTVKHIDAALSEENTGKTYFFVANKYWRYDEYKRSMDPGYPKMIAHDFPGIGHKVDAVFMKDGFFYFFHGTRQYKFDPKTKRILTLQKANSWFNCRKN
Assay: Inhibition of human matrix metalloprotease-1

C[C@H](NC(=O)[C@H](Cc1ccccc1)NS(=O)(=O)c1cccc2c(N(C)C)cccc12)C(=O)Nc1n[nH]c(=S)s1 and C[C@H](NC(=O)[C@H](Cc1ccccc1)NS(=O)(=O)c1cccc2cccnc12)C(=O)Nc1n[nH]c(=S)s1 are within 0.2 log units of each other in pKi: 4.06 for the first, 4.13 for the second.

C[C@H](NC(=O)[C@H](Cc1ccccc1)NS(=O)(=O)c1cccc([N+](=O)[O-])c1)C(=O)Nc1n[nH]c(=S)s1 and C[C@H](NC(=O)[C@H](Cc1ccccc1)NS(=O)(=O)c1ccc([N+](=O)[O-])cc1)C(=O)Nc1n[nH]c(=S)s1 are within 0.2 log units of each other in pKi: 4.74 for the first, 4.82 for the second.

First: C[C@H](NC(=O)[C@H](Cc1ccccc1)NS(=O)(=O)c1cccs1)C(=O)Nc1n[nH]c(=S)s1
Second: Cc1ccc(S(=O)(=O)N[C@@H](Cc2ccccc2)C(=O)N[C@@H](C)C(=O)Nc2n[nH]c(=S)s2)cc1
The pKi of the first is 0.33 log units higher: 4.85 for the first, 4.52 for the second.

First: C[C@H](NC(=O)[C@H](Cc1ccccc1)NS(=O)(=O)CC12CCC(CC1=O)C2(C)C)C(=O)Nc1n[nH]c(=S)s1 (stereo not given in full)
Second: C[C@H](NC(=O)[C@H](Cc1ccccc1)NS(=O)(=O)Cc1ccccc1)C(=O)Nc1n[nH]c(=S)s1
The pKi of the first is 0.46 log units lower: 4.16 for the first, 4.62 for the second.

C[C@H](NC(=O)[C@H](Cc1ccccc1)NS(=O)(=O)c1ccc(Cl)cc1)C(=O)Nc1n[nH]c(=S)s1 and C[C@H](NC(=O)[C@H](Cc1ccccc1)NS(=O)(=O)c1ccc(Br)cc1)C(=O)Nc1n[nH]c(=S)s1 are within 0.2 log units of each other in pKi: 4.70 for the first, 4.62 for the second.

C[C@H](NC(=O)[C@H](Cc1ccccc1)NS(=O)(=O)c1ccc(I)cc1)C(=O)Nc1n[nH]c(=S)s1 was tested, and the pKi was 4.68.
